Test results taken from ChEMBL document CHEMBL1149889, “ent-Kaurane Diterpenoids from Isodon nervosus” (J Nat Prod, 2008).

Columns and labels:
Type in all cases: functional, cell-based
A549 = assay: Cytotoxicity against human A549 cells
HepG2 = assay: Cytotoxicity against human HepG2 cells
K562 = assay: Cytotoxicity against human K562 cells

SMILES | IC50 (A549) [µM] | IC50 (HepG2) [µM] | IC50 (K562) [µM]
C=C1[C@@H]2C[C@H](O)[C@H]3[C@@]4(C)[C@H](C[C@H](OC(C)=O)[C@]3(C2)[C@@H]1O)C(C)(C)[C@@H](OC(C)=O)C[C@@H]4O [ADENANTHIN E] | > 100 | > 100 | > 100
C=C1[C@@H]2C[C@H](OC(C)=O)[C@H]3[C@]4(C)[C@@H](OC(C)=O)C[C@H](O)C(C)(C)[C@H]4C(=O)[C@H](OC(C)=O)[C@]3(C2)[C@@H]1O [ADENANTHIN J] | > 100 | > 100 | > 100
C=C1[C@@H]2C[C@H](OC(C)=O)[C@H]3[C@]4(C)[C@@H](OC(C)=O)C[C@H](O)C(C)(C)[C@H]4C(=O)[C@H](O)[C@]3(C2)[C@@H]1OC(C)=O [ADENANTHIN K] | > 100 | > 100 | > 100
C=C1C(=O)[C@]23C[C@H]1C[C@H](OC(C)=O)[C@H]2[C@]1(C)[C@@H](OC(C)=O)C[C@H](O)C(C)(C)[C@H]1C(=O)[C@@H]3OC(C)=O [ADENANTHIN] | 8.07 | 0.32 | 1.05
C=C1C(=O)[C@]23C[C@H]1C[C@H](OC(C)=O)[C@H]2[C@]1(C)[C@@H](OC(C)=O)C[C@H](O)C(C)(C)[C@H]1[C@@H](OC(C)=O)[C@@H]3OC(C)=O [CALCICOLIN A] | 12.2 | 0.51 | 2.39
C=C1C(=O)[C@]23C[C@H]1C[C@H](OC(C)=O)[C@H]2[C@@]1(C)[C@H](C(=O)[C@@H]3OC(C)=O)C(C)(C)[C@@H](O)C[C@@H]1O [CALCICOLIN B] | 8.5 | 0.52 | 1.55
C=C1[C@@H]2C[C@H](O)[C@H]3[C@@]4(C)[C@H]([C@@H](O)[C@H](OC(C)=O)[C@]3(C2)[C@@H]1O)C(C)(C)[C@@H](OC(C)=O)C[C@@H]4O [FORRESTIN B] | > 100 | > 100 | > 100
C=C1[C@@H]2C[C@H](OC(C)=O)[C@H]3[C@]4(C)[C@@H](OC(C)=O)C[C@H](O)C(C)(C)[C@H]4[C@H](O)[C@H](OC(C)=O)[C@]3(C2)[C@@H]1O [FORRESTIN C] | > 100 | > 100 | > 100
C=C1[C@@H]2C[C@H](OC(C)=O)[C@H]3[C@]4(C)[C@@H](OC(C)=O)C[C@H](O)[C@]5(C)C[C@@](O)([C@H]54)[C@H](OC(C)=O)[C@]3(C2)[C@@H]1OC(C)=O [NERVONIN A] | > 100 | > 100 | > 100
C=C1C(=O)[C@]23C[C@H]1C[C@H](OC(C)=O)[C@H]2[C@@]1(C)[C@H]([C@@H](OC(C)=O)[C@@H]3OC(C)=O)C(C)(C)[C@@H](O)C[C@@H]1O [NERVONIN B] | 1.53 | 1.16 | 1.18
C=C1[C@@H]2C[C@H](OC(C)=O)[C@H]3[C@@]4(C)[C@H](C(=O)[C@H](OC(C)=O)[C@]3(C2)[C@@H]1OC(C)=O)C(C)(C)[C@@H](O)C[C@@H]4O [NERVONIN C] | > 100 | > 100 | > 100
C=C1[C@@H]2C[C@H](OC(C)=O)[C@H]3[C@]4(C)[C@@H](OC(C)=O)C[C@H](O)C(C)(C)[C@H]4[C@@H](O)[C@H](OC(C)=O)[C@]3(C2)[C@@H]1OC(C)=O [NERVONIN D] | > 100 | > 100 | > 100
C=C1[C@@H]2C[C@H](OC(C)=O)[C@H]3[C@]4(C)[C@@H](OC(C)=O)C[C@H](O)C(C)(C)[C@H]4C(=O)[C@H](O)[C@]3(C2)[C@@H]1O [NERVONIN E] | > 100 | > 100 | > 100
C=C1[C@@H]2C[C@H](O)[C@H]3[C@]4(C)[C@@H](OC(C)=O)C[C@H](O)C(C)(C)[C@H]4[C@@H](O)[C@H](OC(C)=O)[C@]3(C2)[C@@H]1O [NERVONIN F] | > 100 | > 100 | > 100
C=C1[C@@H]2C[C@H](O)[C@H]3[C@]4(C)[C@@H](OC(C)=O)C[C@H](O)C(C)(C)[C@H]4[C@@H](OC(C)=O)[C@H](OC(C)=O)[C@]3(C2)[C@@H]1O [NERVONIN G] | > 100 | > 100 | > 100
C=C1[C@@H]2C[C@H](OC(C)=O)[C@H]3[C@@]4(C)[C@H](C[C@H](OC(C)=O)[C@]3(C2)[C@@H]1O)C(C)(C)[C@@H](O)C[C@@H]4O [NERVONIN H] | > 100 | > 100 | > 100
C=C1[C@@H]2C[C@H](OC(C)=O)[C@H]3[C@@]4(C)[C@H]([C@@H](O)[C@H](OC(C)=O)[C@]3(C2)[C@@H]1O)C(C)(C)[C@@H](O)C[C@@H]4O [NERVONIN I] | > 100 | > 100 | > 100
C=C1[C@@H]2C[C@H](O)[C@@H]3[C@@](CC(=O)[C@@H]4C(C)(C)[C@@H](O)C[C@H](O)[C@]43C)(C2)[C@@H]1OC(C)=O [NERVONIN J] | > 100 | > 100 | > 100
C=C1[C@@H]2C[C@H](OC(C)=O)[C@H]3[C@]4(C)[C@@H](OC(C)=O)C[C@H](O)C(C)(C)[C@H]4C(=O)[C@H](OC(C)=O)[C@]3(C2)[C@@H]1OC(C)=O [NERVOSANIN] | > 100 | > 100 | > 100
C=C1C(=O)[C@]23C[C@H]1C[C@H](OC(C)=O)[C@H]2[C@]1(C)[C@@H](OC(C)=O)C[C@H](O)C(C)(C)[C@H]1[C@@H](O)[C@@H]3OC(C)=O [WEISIENSIN A] | 1.88 | 1.43 | 4.11
